Experiment: Human HepG2 cell viability assay in 384 well format
Assay type: toxicity, cell-based
Set-up: dose 125 nL, time 70.5 hour; concentration not given beside the values
Settings: HepG2 cells, read-out: Inhibition

Row | SMILES | cytotoxicity at 70.5 h [%]
1 | COc1cc(NC(=O)NCC2CCCO2)cc(OC)c1 (stereo not drawn) | 16.9
2 | O=C(C1=CCCC1)N1C[C@H](Oc2cccnc2)[C@H]2OCCC[C@H]21 | -4.92
3 | Cc1cc(C(=O)N2CCCCC2C)ccc1NC(=O)N1CCOCC1 (stereo not drawn) | -6.59
4 | CN(CCN1CCCCCC1)C(=O)c1cc(CN2CCC(O)CC2)on1 | -0.511
5 | Cc1ccc(CCNC(=O)N2CCCC(Cc3nccn3C)C2)cn1 (stereo not drawn) | 1.34
6 | NC(=O)c1ccc(OCC(=O)NC2CCc3c(F)cccc32)cc1 (stereo not drawn) | -5.14
7 | Cc1ccc(N2CCCC(NCC(=O)Nc3cc(C)nn3C)C2)nn1 (stereo not drawn) | -4.79
8 | Cc1cc(N(C)C)nc(C2COCCN2Cc2cc(C)on2)n1 (stereo not drawn) | -7.49
9 | CC(C)CC(=O)N1Cc2ccccc2CC1C(=O)Nc1nccs1 (stereo not drawn) | -8.5
10 | CC(C)c1cc(C(=O)N2C[C@@H](C)[C@](O)(C3CC3)C2)[nH]n1 | -5.59
11 | Cc1c(C(=O)N2CCCC(n3cccn3)C2)nnn1-c1ccccc1 (stereo not drawn) | -2.31
12 | O=S(=O)(CC1CCCCC1)NCc1ccnc(O)c1 | -7.43
13 | NC(=O)c1cnn2c1NCC(CNCC1(c3ccccc3)CCCC1)C2 (stereo not drawn) | 0.136
14 | Cc1nc(CN2CCO[C@@H]3CN(C(=O)CN(C)C)CC[C@@H]3C2)cs1 | -13.1
15 | O=C(CSc1ccc(F)cc1F)NS(=O)(=O)c1ccc2c(c1)OCCO2 | -3.46
16 | CN(c1ccc(CNc2c(Cl)cccc2C#N)cc1)S(C)(=O)=O | -1.4
17 | CC(C)Cn1cncc1CNC(=O)c1cccc(-n2cnnc2)c1 | 8.85
18 | CCCOC1CCCN(C(=O)c2cnc(-c3csc(C)n3)nc2O)C1 (stereo not drawn) | -6.67
19 | COc1ccc(-c2ccnc3nc(N4CCCC4)[nH]c(=O)c23)cc1OC | -9.78
20 | CC(=O)N1CCOC(c2nc(N(C)C)ncc2-c2cccc(F)c2)C1 (stereo not drawn) | -7.24

Row | SMILES | cytotoxicity at 70.5 h [%]
21 | COCC1CN(S(=O)(=O)c2ccccc2)Cc2ncnn2C1 (stereo not drawn) | -6.59
22 | CC(CNC(=O)c1cc(-n2cccn2)ccn1)Cn1ccnc1 (stereo not drawn) | -0.0471
23 | O=C(NCc1ccccn1)[C@@H]1COC[C@H]2CNC[C@H]21 | -12.9
24 | CC(NCCc1nccn1Cc1ccccc1)c1cccs1 (stereo not drawn) | 13.3
25 | COc1c(CNC2CCN(c3ncccn3)CC2)c(C)nn1C | -8.59
26 | Cn1nccc1CCC(=O)N1CCCC(c2cnccn2)C1 (stereo not drawn) | 12.9
27 | Cn1nc(Br)c2c(=O)n(CCc3ccccc3)cnc21 | -8.29
28 | COc1ccc(Cl)cc1-n1nc(C2CCCC2)nc1Cn1cnnn1 | 5.4
29 | CCN(CC)CC(=O)N1CCCCC1c1nc(C)cs1 (stereo not drawn) | -2.06
30 | COCC(=O)NCc1cc2n(n1)CCCN(CCCC1CCCC1)C2 | -2.24
31 | Cc1nnc2n1CCN(CCCS(=O)(=O)c1ccccc1)C2 | 0.781
32 | CCC(CO)N(Cc1cccc(O)c1)Cc1ccccc1C (stereo not drawn) | -5.23
33 | CC1(Cc2ccc3c(c2)OCO3)CCCN(S(=O)(=O)N2CCCC2)C1 (stereo not drawn) | 0.304
34 | Cc1ccc(OCCC(=O)N(C)CCC#N)cc1C | -7.6
35 | c1ccc(Cc2nnc(CN3CCc4cncnc4C3)o2)cc1 | 1.25
36 | c1cn(-c2nccnc2C2CCCN(C3CCOCC3)C2)cn1 (stereo not drawn) | -5.56
37 | COc1cc(-c2cc(C3CCOC3)c(C#N)c(N)n2)ccc1O (stereo not drawn) | -6.12
38 | CC(=O)N1CCN(C(=O)CNc2ccc3ncsc3c2)CC1 | -5.1
39 | Cc1noc(OCC(=O)N2CCCCC2C)n1 (stereo not drawn) | -3.19
40 | O=C(NCCN1CCOC1=O)c1cc(-c2ccccc2)on1 | 33.3

Row | SMILES | cytotoxicity at 70.5 h [%]
41 | CC(C)c1nc(C2CCCN(C(=O)c3ccc4[nH]nnc4c3)C2)no1 (stereo not drawn) | -4
42 | O=C1CCC2(CCCN(C(=O)c3ccccn3)CC2)N1 (stereo not drawn) | -1.45
43 | COC1CCN(c2ccc(F)cc2CN(C)CC(N)=O)CC1 | -4.87
44 | CC(c1nc(C2CC2)no1)N1CCc2c(ncn2C2CC2)C1 (stereo not drawn) | -7.1
45 | O=C(CCn1cncn1)NCC1CCOC1 (stereo not drawn) | -6.75
46 | CN(C)C(=O)N1CC(=O)NCC12CCN(C(=O)c1ccco1)C2 (stereo not drawn) | -7.28
47 | Cc1cc(N2CCN(C(=O)c3cccnc3)CC2)nc(C)n1 | -2.72
48 | COc1ncc(CN2CCC3(CCCN(CC4CCC4)C3)C2)cn1 (stereo not drawn) | -1.38
49 | Cc1nn(C)c2ncc(NC(=O)N(C)Cc3cc(Cl)cn3C)cc12 | -4.9
50 | CN(Cc1nnc(-c2ccco2)o1)C1CCCN(c2cccnn2)C1 (stereo not drawn) | 36.8
51 | O=C(O)c1cc(-c2ccccc2)ns1 | -20.2
52 | O=C(NCCn1ccnc1)c1ccn(-c2ccccc2)n1 | -1.21
53 | CN(C)S(=O)(=O)N1CC[C@]2(O)CCN(c3cc(C#N)ccn3)C[C@@H]2C1 | -7.65
54 | O=C1CCCN1CCCN1CCCCC1Cn1cncn1 (stereo not drawn) | -5.51
55 | Cn1cnc(S(=O)(=O)N2CCCC2c2ccnc3nccn23)c1 (stereo not drawn) | 0.418
56 | CCn1cc(CN2CCC(CN3CCCCC3)CC2)cc1C#N | 4.33
57 | CCc1nnc(CN2CCc3cnc(C)nc3C2)o1 | -3.58
58 | Cc1occc1CN(C)C(=O)Nc1ccc(=O)n(C)c1 | -7.93

From ChEMBL document CHEMBL3507680, “University of Dundee, Gates Library screen for HepG2 cell viability”
